In ChEMBL document CHEMBL1133613, “1-[4-(3-Phenylalkyl)phenyl]-2-aminopropanes as 5-HT(2A) partial agonists” (J Med Chem, 2000) one finds Ki and Selectivity data, which are given here for 24 compounds.

The target in experiment [1] is 5-hydroxytryptamine receptor 2A (Rattus norvegicus, UniProt P14842). Briefly: Displacement of [3H]ketanserin from NIH3T3 cells stably expressing rat 5-hydroxytryptamine 2A receptor. The experiment is classed as cell-based. (Displacement assays read how much labelled ligand stays bound in the presence of the test substance.)
Experiment [2] concerns the target Serotonin receptor 2a and 2c (5HT2A and 5HT2C) (Rattus norvegicus) (UniProt P08909+P14842). Briefly: Relative affinities for rat 5-HT2C receptors and 5-HT2A receptors. The format is protein assay.
In experiment [3] the target is T1, 5-hydroxytryptamine receptor 2C (Rattus norvegicus, UniProt P08909).
T1 sequence (P08909 whole entry): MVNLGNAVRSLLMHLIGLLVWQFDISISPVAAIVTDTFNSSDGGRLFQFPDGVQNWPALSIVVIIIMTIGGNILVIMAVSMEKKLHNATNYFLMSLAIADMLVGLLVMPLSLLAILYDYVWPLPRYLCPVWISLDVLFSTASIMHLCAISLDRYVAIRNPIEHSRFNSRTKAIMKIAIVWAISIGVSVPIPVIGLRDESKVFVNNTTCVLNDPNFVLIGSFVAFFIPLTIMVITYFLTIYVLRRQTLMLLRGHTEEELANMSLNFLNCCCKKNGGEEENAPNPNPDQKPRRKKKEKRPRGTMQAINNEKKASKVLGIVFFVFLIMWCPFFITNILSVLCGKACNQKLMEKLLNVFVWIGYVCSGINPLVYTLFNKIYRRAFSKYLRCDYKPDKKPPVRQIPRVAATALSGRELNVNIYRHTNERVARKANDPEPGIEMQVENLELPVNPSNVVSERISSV
Briefly: Displacement of [3H]mesulergine from A9 cells stably expressing rat 5-hydroxytryptamine 2C receptor. The format is cell-based.

Sequence of 5-hydroxytryptamine receptor 2A (P14842 whole entry): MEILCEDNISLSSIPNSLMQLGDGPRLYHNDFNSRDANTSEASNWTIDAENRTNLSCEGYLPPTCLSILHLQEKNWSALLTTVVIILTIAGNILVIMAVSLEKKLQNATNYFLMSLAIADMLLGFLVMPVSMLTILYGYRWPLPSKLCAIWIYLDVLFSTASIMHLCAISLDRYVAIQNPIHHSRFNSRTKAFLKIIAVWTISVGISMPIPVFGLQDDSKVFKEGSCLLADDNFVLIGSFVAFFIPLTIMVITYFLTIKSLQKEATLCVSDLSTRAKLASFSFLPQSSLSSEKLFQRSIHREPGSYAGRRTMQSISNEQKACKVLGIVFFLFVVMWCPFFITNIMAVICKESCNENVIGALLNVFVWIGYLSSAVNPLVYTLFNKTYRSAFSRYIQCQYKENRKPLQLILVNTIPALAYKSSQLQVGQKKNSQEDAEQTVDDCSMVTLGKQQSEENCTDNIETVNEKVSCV
Sequence of Serotonin receptor 2a and 2c (5HT2A and 5HT2C) (Rattus norvegicus) (P14842 whole entry, looked up, one chain of several): as the sequence (P14842 whole entry) above

Take `COc1cc(CCCCc2ccccc2)c(OC)cc1CCN`: the Ki (in general, the dissociation constant of the complex between target and ligand, obtained from inhibition or displacement) in experiment [1] is 115 nM; in experiment [3] it was 25 nM. In addition, the Selectivity in experiment [2] stood at 0.2.

As to `COc1cc(CC(C)N)ccc1CCCc1ccccc1` (configuration not stated), the Ki in experiment [1] was 17 nM; in experiment [3], 135 nM. In experiment [2], the Selectivity came out at 7.9.

Regarding `NCCc1ccc(CCCc2ccccc2)cc1`, the figures for the Ki in experiment [1] and in experiment [3] were 60 nM and 525 nM, respectively. In addition, the Selectivity in experiment [2] stood at 8.9.

`COc1ccc(OC)c(CCN)c1`: the Ki was 3000 nM in experiment [1] and 5520 nM in experiment [3].

Turning to `COc1cc(CCCc2ccccc2)cc(OC)c1CC(C)N` (configuration not stated), the results for the Ki in experiment [1] and in experiment [3] were 3 nM and 39 nM, respectively. The same compound displayed a Selectivity in experiment [2] of 13.

For the compound `COc1cc(C[C@@H](C)N)cc(OC)c1`, the Ki in experiment [1] and in experiment [3] was greater than 10000 nM throughout.

In the case of `COc1cc(CC(C)N)cc(OC)c1CCCc1ccccc1` (configuration not stated), the Ki in experiment [1] is 4 nM; in experiment [3] it was 40 nM. Further, the Selectivity in experiment [2] stood at 10.

As for `COc1cc(CCc2ccccc2)c(OC)cc1CCN`, the Ki in experiment [1] turned out to be 37 nM; in experiment [3] it was 76 nM. In experiment [2], the Selectivity stood at 2.

As to `COc1cccc(CC(C)N)c1` (configuration not stated), the Ki in experiment [1] and in experiment [3] was greater than 10000 nM throughout.

On to `COc1cc(CCCc2ccccc2)c(OC)cc1CCN`, for which the values for the Ki in experiment [1] and in experiment [3] were 150 nM and 28 nM, respectively. The compound also had a Selectivity in experiment [2] of 0.2.

Consider `COc1cc(CC(C)N)c(OC)cc1CCc1ccccc1` (configuration not stated), for which the Ki was 95 nM in experiment [1] and 140 nM in experiment [3]. The same compound gave a Selectivity in experiment [2] of 1.5.

As for `COc1cc(CC(C)N)c(OC)cc1CCCc1ccccc1` (configuration not stated), the Ki in experiment [1] was 30 nM; in experiment [3] it was 50 nM. Further, the Selectivity in experiment [2] was 1.7.

With `COc1ccc(OC)c(CC(C)N)c1` (configuration not stated), the Ki in experiment [1] is 4720 nM; in experiment [3] it was greater than 10000 nM.

Regarding `COc1cccc(OC)c1CC(C)N` (configuration not stated), the Ki in experiment [1] and in experiment [3] was greater than 10000 nM in each case.

For `COc1ccc(CCCc2cc(OC)c(CC(C)N)cc2OC)cc1` (configuration not stated), the values for the Ki in experiment [1] and in experiment [3] were 28 nM and 24 nM, respectively. The compound also gave a Selectivity in experiment [2] of 0.9.

Turning to `CC(N)Cc1ccc(CCCc2ccccc2)cc1` (configuration not stated), the figures for the Ki in experiment [1] and in experiment [3] were 78 nM and 530 nM, respectively. This compound gave a Selectivity in experiment [2] of 6.8.

`COc1ccccc1CC(C)N` (configuration not stated): the Ki in experiment [1] and in experiment [3] was greater than 10000 nM throughout.

As for `COc1cc(CC(C)N)c(OC)cc1CCCCc1ccccc1` (configuration not stated), the Ki amounted to 8 nM in experiment [1] and 6 nM in experiment [3]. Also, in experiment [2], the Selectivity amounted to 0.8.

`COc1cc(CCN)c(OC)cc1Br` showed a Ki in experiment [1] of 16 nM. In other words, the double-digit nanomolar range.

Consider `COc1cc(CCCc2ccccc2)ccc1CC(C)N` (configuration not stated), for which the Ki in experiment [1] was 8 nM; in experiment [3], 89 nM. The compound further gave a Selectivity in experiment [2] of 11.1.

Regarding `COc1cc(CC(C)N)c(OC)cc1CCCc1ccc(Cl)cc1` (configuration not stated), the Ki in experiment [1] came out at 12 nM; in experiment [3], 16 nM. The compound also displayed a Selectivity in experiment [2] of 1.3.

In the case of `COc1cc(CC(C)N)cc(OC)c1Br` (configuration not stated), the Ki in experiment [1] came out at 210 nM; in experiment [3], 570 nM.

`COc1cccc(CC(C)N)c1OC` (configuration not stated): the Ki is 4280 nM in experiment [1] and greater than 10000 nM in experiment [3].

For `COc1c(CCCc2ccccc2)ccc(CC(C)N)c1OC` (configuration not stated), the Ki in experiment [1] is 4 nM; in experiment [3] it was 79 nM. In experiment [2], this compound came in with a Selectivity of 19.8.
